The values below come from PubChem BioAssay AID1648 (Sanford-Burnham Center for Chemical Genomics, 2009).

SMILES strings stand for the structures. Activity calls are given as the source filed them. No rule for the calls is given here.

Chain of Serine/threonine-protein kinase mTOR (Homo sapiens) (P42345 2015-2114): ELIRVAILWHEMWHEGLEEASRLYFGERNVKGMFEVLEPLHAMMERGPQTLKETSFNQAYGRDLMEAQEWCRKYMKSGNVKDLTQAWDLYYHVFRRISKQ

The assay has as its target Serine/threonine-protein kinase mTOR (Homo sapiens) (UniProt P42345). The experiment in a line: binders of mTOR FRB domain, biophysical, NMR (AID 1648). The settings on record: NMR binding to FRB domain, chemical shift.
In the case of `Cc1cc(C)c(NC(=O)CN2CCC(O)CC2)c(C)c1`, the Kd is > 4 mM (inactive).

Take `O=C(NCCO)NC(=S)c1ccccc1`: the Kd was > 4 mM (inactive).

Regarding `O=C(O)CS(=O)(=O)c1ccccc1`, the Kd was > 4 mM (inactive).

Consider `COc1cc2c(cc1OC)C1(O)C(=O)c3ccc(O)c(C(=O)O)c3OC1CO2` (stereo unspecified), for which the Kd is > 4 mM (inactive).

Regarding `CCc1ccccc1NC(=O)c1ccoc1C`, the Kd is > 4 mM (inactive).

Regarding `O=C(NC(O)C(=O)c1ccccc1)c1ccco1` (stereo unspecified), the Kd was > 4 mM (inactive).

Turning to `CN1C(=O)CC[C@H]1c1cccnc1`, the Kd was > 4 mM (inactive).

As to `CCc1c(C)[nH]c(=S)c(C(N)=O)c1C`, the Kd was > 4 mM (inactive).

On to `C[C@@H]1O[C@@H](O[C@H]2C[C@@H](O)[C@]3(CO)C4C(CC[C@]3(O)C2)[C@@]2(O)CC[C@H](C3=CC(=O)OC3)[C@@]2(C)C[C@H]4O)[C@H](O)[C@H](O)[C@H]1O` (stereo partly specified), for which the Kd was > 4 mM (inactive).

With `CCOC(=O)c1c(C)cc(OC)cc1O`, the Kd is > 4 mM (inactive).

As to `CC1(C)C[C@@H]2C(=O)CC[C@H]3O[C@]3(C)CC[C@H]21`, the Kd was > 4 mM (inactive).

For the compound `COc1cc(S(=O)(=O)Nc2cccnc2)ccc1F`, the Kd was > 4 mM (inactive).

Turning to `Cc1ccc2cc(C(=O)O)ccc2n1`, the Kd was > 4 mM (inactive).

`C=C1C2CC[C@@]3(C)[C@H](c4ccoc4)OC(=O)C[C@]13O[C@H]1CC(=O)C(C)(C)[C@H](C(O)C(=O)OC)[C@@]21C` (stereo partly specified): the Kd is > 4 mM (inactive).

On to `O=C(O)c1ccc2occc2c1`, for which the Kd is > 4 mM (inactive).

For `CNS(=O)(=O)c1ccc2[nH]c(=O)[nH]c2c1`, the Kd is > 4 mM (inactive).

On to `COc1c2c(cc3c1OCO3)C13C=C[C@H](OC)CC1N(C2)CC3O` (stereo partly specified), for which the Kd was > 4 mM (inactive).

For `Cc1ccc(N2CCN(C(=O)c3ccccc3)CC2)c(C)c1`, the Kd is > 4 mM (inactive).

As for `Cc1cc(N)no1`, the Kd was > 4 mM (inactive).

For `COc1ccccc1NC(C)=O`, the Kd is > 4 mM (inactive).

Turning to `COc1cc(S(=O)(=O)N(C)C)ccc1F`, the Kd is > 4 mM (inactive).

In the case of `O=c1c[n+]([O-])c2ccccc2n1OCc1ccccn1`, the Kd was > 4 mM (inactive).

With `Cn1c(-c2ccccc2F)n[nH]c1=S`, the Kd was > 4 mM (inactive).

Take `CCC1(CC)C(=O)NC(=O)N=C1N`: the Kd is > 4 mM (inactive).

On to `O=C(/C=C/c1ccccc1)c1ccc(O)cc1`, for which the Kd was > 4 mM (inactive).

Regarding `Cc1ccccc1NC(=O)c1ccccc1`, the Kd was > 4 mM (inactive).

For the compound `OCc1ccc2occc2c1`, the Kd is > 4 mM (inactive).

Take `C=CC(C1=CC(=O)C=CC1=O)c1ccccc1` (stereo unspecified): the Kd is > 4 mM (inactive).

For `OC1CC(c2ccccc2)NC2(CCCC2)C1` (stereo unspecified), the Kd is > 4 mM (inactive).

In the case of `Cc1cccc(C(C)C)c1NC(=O)c1cccnc1`, the Kd is > 4 mM (inactive).

Turning to `NC(=O)c1cccc(N2C(=O)C=CC2=O)c1`, the Kd is > 4 mM (inactive).

For `COCc1cc(Cl)nc(-c2csc(C)n2)n1`, the Kd is > 4 mM (inactive).

Take `O=C(O)CN1CCNCC1`: the Kd was > 4 mM (inactive).

`O=C(Nc1cccc2cccnc12)c1cccnc1`: the Kd was > 4 mM (inactive).

With `O=C1CSC2(CN3CCC2CC3)N1` (stereo unspecified), the Kd is > 4 mM (inactive).

Turning to `CC(C)(C)CC(=O)NC1=NCCS1`, the Kd was > 4 mM (inactive).

Consider `O=C(O)c1cccc(CSc2ncccn2)c1`, for which the Kd was > 4 mM (inactive).

As to `CCOc1ccc(-c2c(=O)n(O)c3ccccc3[n+]2[O-])cc1`, the Kd is > 4 mM (inactive).

As for `O=C(O)CCCCC1SCC2NC(=O)NC21` (stereo unspecified), the Kd is > 4 mM (inactive).

`O=C1NC(=O)C(Cc2ccccc2)C(=O)N1`: the Kd was > 4 mM (inactive).

In the case of `NC(=O)c1ccc(-c2csnn2)cc1`, the Kd was > 4 mM (inactive).

Regarding `O=C1N/C(=N\c2ccccn2)SC1Cc1ccccc1` (stereo unspecified), the Kd was > 4 mM (inactive).

For `O=C(N1CCOCC1)N1CCN(c2ccccn2)CC1`, the Kd was > 4 mM (inactive).

With `Cn1c(=O)n(CC(=O)Nc2cccnc2)c2ccccc21`, the Kd was > 4 mM (inactive).

Take `O=S(=O)(NCc1ccco1)c1cccc2cccnc12`: the Kd was > 4 mM (inactive).

On to `O=C(O)c1cc2ccccc2o1`, for which the Kd was > 4 mM (inactive).

In the case of `COc1ccc(NC(=O)N2CCCCC2)cc1`, the Kd is > 4 mM (inactive).

`CC(=O)Nc1ccc(Cl)c(C(N)=O)c1`: the Kd was > 4 mM (inactive).

For the compound `Cc1cc(N)ccc1NC(=O)c1ccco1`, the Kd is > 4 mM (inactive).

In the case of `Nc1ccc(S(=O)(=O)N2CCOCC2)cc1`, the Kd is > 4 mM (inactive).

In the case of `Nc1ncccc1OCc1ccccc1`, the Kd is > 4 mM (inactive).

With `CC1CCN(C(=O)c2cc3ccccc3o2)CC1`, the Kd was > 4 mM (inactive).

Turning to `COC(=O)/C(C)=C\CC12OC(C)(C)C3CC(C=C4C(=O)c5c(OC)c6c(c(CC=C(C)C)c5OC431)OC(C)(CCC=C(C)C)C=C6)C2=O` (stereo unspecified), the Kd was > 4 mM (inactive).

With `Cc1nnsc1C(=O)Nc1cccc(S(N)(=O)=O)c1`, the Kd was > 4 mM (inactive).

Turning to `CN1C2CC[C@@H]1CC(OC(=O)[C@H](CO)c1ccccc1)C2` (stereo partly specified), the Kd is > 4 mM (inactive).

In the case of `COC1CC(O[C@H]2CC[C@]3(C=O)C4CC[C@]5(C)C(C6=CC(=O)OC6)CC[C@]5(O)C4CC[C@]3(O)C2)OC(C)C1O` (stereo partly specified), the Kd was > 4 mM (inactive).

`CC1(C)C2CC[C@]3(C)C(C(=O)C=C4[C@H]5C[C@@](C)(C(=O)O)CC[C@]5(C)CC[C@]43C)[C@@]2(C)CC[C@@H]1O` (stereo partly specified): the Kd is > 4 mM (inactive).

For `COc1ccc2c(c1OC)C(=O)O[C@@H]2[C@@H]1c2cc3c(cc2CCN1C)OCO3`, the Kd is > 4 mM (inactive).

Turning to `COC1(C)CCC2OC2(C)CCC2C1CC2(C)C` (stereo unspecified), the Kd is > 4 mM (inactive).

Consider `CC(=O)Oc1ccc2c(c1C(C)C)CCC1C(C)(C)CCC[C@]21C` (stereo partly specified), for which the Kd was > 4 mM (inactive).

Take `O=C(Nc1nncs1)C1(c2ccccc2)CCCC1`: the Kd was > 4 mM (inactive).

Turning to `COc1ccc(-c2coc3c(OC)c(OC)cc(OC)c3c2=O)cc1`, the Kd is > 4 mM (inactive).

In the case of `CN1CCN(c2nc3c(c(=O)[nH]2)CCCC3)CC1`, the Kd was > 4 mM (inactive).

In the case of `CC1(C)C(=O)C=C[C@@]2(C)C1C=C[C@]1(C)C2CC[C@@]2(C)[C@H](c3ccoc3)OC(=O)C3OC321` (stereo partly specified), the Kd is > 4 mM (inactive).

On to `COC1=CC(=O)C[C@@H](C)[C@]12Oc1c(Cl)c(OC)cc(OC)c1C2=O`, for which the Kd was > 4 mM (inactive).

`COc1c(OC)c2occc2c2oc(=O)ccc12`: the Kd is > 4 mM (inactive).

With `CC(=O)Nc1ccc(N2CCOCC2)cc1`, the Kd is > 4 mM (inactive).

As to `COc1ccc(CN2CCC(O)CC2)c(O)c1`, the Kd was > 4 mM (inactive).

Take `CCc1noc(C)c1C(=O)N1CCCC1`: the Kd was > 4 mM (inactive).

As for `CC(=O)Nc1ccc(S(N)(=O)=O)cc1`, the Kd is > 4 mM (inactive).

On to `CN1CCC(NC(=O)c2cccnc2)CC1`, for which the Kd is > 4 mM (inactive).

Turning to `S=C(NCc1cccnc1)NC1CC1`, the Kd was > 4 mM (inactive).

For the compound `COc1ccc(-c2c(O)c3c(OC)c4c(cc3oc2=O)OC(C)(C)CC4)cc1`, the Kd was > 4 mM (inactive).

Consider `CC1(C)SCC(C(=O)O)N1C=O` (stereo unspecified), for which the Kd is > 4 mM (inactive).

Regarding `C=C1C(N)CC2CC1C2(C)C` (stereo unspecified), the Kd is > 4 mM (inactive).

As to `N#Cc1cnn(-c2ccc(Cl)cc2)c1N`, the Kd was > 4 mM (inactive).

Take `CNC(=O)COc1cccc2c1CCNC2=O`: the Kd was > 4 mM (inactive).

`C/C=C(\C)C(=O)OC1[C@@H]2C=C3C(CC[C@]4(C)C3CC(=O)O[C@H]4c3ccoc3)C(C)(C2=O)[C@@H](C(O)C(=O)OC)C1(C)C` (stereo partly specified): the Kd is > 4 mM (inactive).

On to `CS(=O)(=O)Nc1nnc(Cc2ccccc2)s1`, for which the Kd is > 4 mM (inactive).

In the case of `c1cncc(C2CCCCN2)c1` (stereo unspecified), the Kd is > 4 mM (inactive).

For the compound `COCC(=O)Nc1ccc(C)c(Cl)c1`, the Kd was > 4 mM (inactive).

As to `O=[N+]([O-])c1ccc(/C=N/c2ncn[nH]2)cc1`, the Kd was > 4 mM (inactive).

For `O=C1CSC(=Nc2cccc(C(F)(F)F)c2)N1`, the Kd is > 4 mM (inactive).

As to `O=C(Nc1ccc2c(c1)CCC2)c1cnccn1`, the Kd is > 4 mM (inactive).

On to `COC(=O)Cc1cc(=O)n(-c2ccccc2)[nH]1`, for which the Kd is > 4 mM (inactive).

For `O=C(NCc1n[nH]c(=O)c2ccccc12)C1CC1`, the Kd was > 4 mM (inactive).

Regarding `OCCNC(=S)Nc1ccccc1`, the Kd is > 4 mM (inactive).

`COC(=O)c1ccc2ncccc2c1`: the Kd was > 4 mM (inactive).

As to `CN1CCN(Cc2cccnc2)CC1`, the Kd was > 4 mM (inactive).

As for `O=C(c1ccc(N2CCNCC2)cc1)c1cccnc1`, the Kd is > 4 mM (inactive).

Take `O=P(c1ccccc1)(c1ccccc1)C1CCOCC1`: the Kd was > 4 mM (inactive).

With `Cn1c(=O)n(C)c2nc([N+](=O)[O-])c(Cl)cc21`, the Kd was > 4 mM (inactive).

Turning to `Cc1nc(-c2cccc(N)c2)cs1`, the Kd was > 4 mM (inactive).

On to `O=C1C2C3C=CC(O3)C2C(=O)N1c1ccccc1` (stereo unspecified), for which the Kd was > 4 mM (inactive).

For the compound `O=c1cc(-c2ccccc2)oc2cc(O)cc(O)c12`, the Kd is > 4 mM (inactive).

On to `Cc1c(C)n2c(SCC(N)=O)nnc2[nH]c1=O`, for which the Kd is > 4 mM (inactive).

Take `O=C(c1ccc(F)cc1)N1CCN(c2ncccn2)CC1`: the Kd is > 4 mM (inactive).

For `CC1(C)CN=C(Nc2nc3ccccc3s2)S1`, the Kd is > 4 mM (inactive).

With `CN1CCN(C(=S)NC(=O)c2ccn(C)n2)CC1`, the Kd is > 4 mM (inactive).

As to `Cn1cnc2nc3n(c2c1=O)CCC3`, the Kd is > 4 mM (inactive).

As to `CCC(C)C(NC)C(=O)O` (stereo unspecified), the Kd was > 4 mM (inactive).

Broadly, the Kd is a measure of binding affinity in units of concentration.
